The values that follow come from US20250074888A1, “PYRIDAZINE DERIVATIVES AS MODULATORS OF NLRP3 INFLAMMASOME AND RELATED METHODS” (Neumora Therapeutics, Inc., priority 2021, published 2025).

Bounds are passed on as bounds.

The target in one test is NLRP3 inflammasome (Homo sapiens, UniProt Q96P20). Put plainly: NLRP3 inflammasome activation in THP1 macrophages (LPS priming, nigericin), IL-1β AlphaLISA. It counts as cell-based. Conditions: PMA-differentiated THP1, LPS 20 ng/ml 3 hrs, compound 1 hr, Nigericin 6.7 uM 3 hrs, supernatant. (In Alpha technology, singlet oxygen from a donor bead excites a nearby acceptor bead.)
NLRP3 inflammasome, sequence (Q96P20 whole entry): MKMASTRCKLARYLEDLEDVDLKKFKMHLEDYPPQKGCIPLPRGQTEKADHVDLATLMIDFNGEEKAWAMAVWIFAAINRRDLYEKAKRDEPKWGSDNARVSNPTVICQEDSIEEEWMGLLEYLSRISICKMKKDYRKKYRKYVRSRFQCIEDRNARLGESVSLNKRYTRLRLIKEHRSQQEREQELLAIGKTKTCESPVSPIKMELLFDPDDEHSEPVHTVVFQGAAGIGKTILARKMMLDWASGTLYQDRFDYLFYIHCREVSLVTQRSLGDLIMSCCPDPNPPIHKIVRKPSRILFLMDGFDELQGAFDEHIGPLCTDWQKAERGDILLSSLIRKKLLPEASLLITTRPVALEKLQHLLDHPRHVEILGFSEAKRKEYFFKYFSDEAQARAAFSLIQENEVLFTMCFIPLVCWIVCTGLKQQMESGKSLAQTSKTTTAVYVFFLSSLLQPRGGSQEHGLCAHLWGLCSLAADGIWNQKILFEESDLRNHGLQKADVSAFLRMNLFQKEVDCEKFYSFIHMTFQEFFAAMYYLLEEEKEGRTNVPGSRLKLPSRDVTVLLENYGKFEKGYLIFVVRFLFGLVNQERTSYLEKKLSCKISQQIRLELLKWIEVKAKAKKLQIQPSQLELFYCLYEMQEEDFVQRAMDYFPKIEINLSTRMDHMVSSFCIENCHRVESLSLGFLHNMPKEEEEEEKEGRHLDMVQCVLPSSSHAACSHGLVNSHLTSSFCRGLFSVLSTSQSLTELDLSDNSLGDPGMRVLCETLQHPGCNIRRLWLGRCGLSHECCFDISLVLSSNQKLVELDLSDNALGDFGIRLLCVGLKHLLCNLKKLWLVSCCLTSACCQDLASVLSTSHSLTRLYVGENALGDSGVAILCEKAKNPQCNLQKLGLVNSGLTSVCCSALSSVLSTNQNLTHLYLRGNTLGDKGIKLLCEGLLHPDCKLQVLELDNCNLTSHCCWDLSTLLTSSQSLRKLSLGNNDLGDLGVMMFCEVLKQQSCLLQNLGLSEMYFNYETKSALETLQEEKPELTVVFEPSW

A further test relates to IL-6. In words: IL-6 release from LPS-primed, nigericin-treated THP1 macrophages, Hu IL-6 AlphaLISA. It is filed as cell-based. To be noted: Homo sapiens, THP-1; PMA-differentiated THP1, LPS 20 ng/ml 3 hrs, compound 1 hr, Nigericin 6.7 uM 3 hrs, supernatant.

`Cc1cc(N[C@@H]2CCCN(C)C2)nnc1-c1ccc(F)c(F)c1` [compound 64]: the values for the IC50 against NLRP3 inflammasome and in the test on IL-6 were 100 to 500 nM and greater than 10000 nM, respectively.
The corresponding values for `Cc1cc(N[C@@H]2CCCN(CCF)C2)nnc1-c1ccc(F)cc1` [compound 65] are 500 to 1000 nM and greater than 10000 nM.
For `Cc1cc(N[C@@H]2CCCN(CC3CC3)C2)nnc1-c1ccc(C(F)(F)F)cc1` [compound 66], the IC50 was no more than 10 nM against NLRP3 inflammasome and greater than 10000 nM in the test with IL-6.
For `CN1CCC[C@@H](Nc2ccc(-c3ccc(C(F)(F)F)cc3)nn2)C1` [compound 67], the figures for the IC50 against NLRP3 inflammasome and in the test with IL-6 were 100 to 500 nM and greater than 10000 nM, respectively.
The corresponding values for `Cc1cc(N[C@@H]2CCCN(C3CC3)C2)nnc1-c1ccc(C(F)(F)F)cc1` [compound 68] are no more than 10 nM and greater than 10000 nM.
In the case of `Cc1cc(N[C@H]2CN(C)CC(F)(F)C2)nnc1-c1ccc(C(F)(F)F)cc1` [compound 69], the values for the IC50 at NLRP3 inflammasome and in the test with IL-6 were 50 to 100 nM and greater than 10000 nM, respectively.
In the case of `Cc1cc(N[C@@H]2CCCN(CC3CC3)C2)nnc1-c1ccc(F)cc1` [compound 70], the IC50 at NLRP3 inflammasome is no more than 10 nM; in the test with IL-6, greater than 10000 nM.
The corresponding values for `Cc1cc(-c2ccc(N[C@@H]3CCCN(C)C3)nn2)c(C)cc1F` [compound 71] are 10 to 50 nM and greater than 10000 nM.
The corresponding values for `Cc1cc(-c2ccc(C(F)(F)F)cc2C#N)nnc1N[C@@H]1CCCN(C)C1` [compound 72] are 100 to 500 nM and greater than 10000 nM.
The matching figures for `Cc1cc(-c2ccc(F)c(Cl)c2)nnc1N[C@@H]1CCCN(C)C1` [compound 73]: 100 to 500 nM and greater than 10000 nM.
As for `Cc1cc(N[C@H]2CN(C)CC[C@H]2F)nnc1-c1ccc(C(F)(F)F)cc1` [compound 74, N-((3S,4R)-4-fluoro-1-methylpiperidin-3-yl)-5-methyl-6-(4-(trifluoromethyl)-phenyl)pyridazin-3-amine], the IC50 is greater than 1000 nM against NLRP3 inflammasome and greater than 10000 nM in the test with IL-6.
The matching figures for `COc1cc(C(F)(F)F)cc(C)c1-c1ccc(N[C@@H]2CCCN(C)C2)nn1` [compound 75]: greater than 1000 nM and 5000 to 10000 nM.
The corresponding values for `Cc1cc(N[C@@H]2CCCN(C)C2)nnc1-c1ccc(O)c(C)c1C(F)(F)F` [compound 76] are greater than 1000 nM and 5000 to 10000 nM.
The matching figures for `Cc1cc(-c2cccc(Cl)c2)nnc1N[C@@H]1CCCN(C)C1` [compound 77]: greater than 1000 nM and 5000 to 10000 nM.
Take `CCc1cccc(-c2cc(C)c(N[C@@H]3CCCN(C)C3)nn2)c1` [compound 78]: the IC50 at NLRP3 inflammasome was greater than 1000 nM; in the test on IL-6, greater than 10000 nM.
The matching figures for `Cc1cc(-c2cccc(C(C)C)c2)nnc1N[C@@H]1CCCN(C)C1` [compound 79]: greater than 1000 nM and greater than 10000 nM.
The corresponding values for `Cc1cc(-c2ccc(C#N)cc2)nnc1N[C@@H]1CCCN(C)C1` [compound 80] are greater than 1000 nM and greater than 10000 nM.
The matching figures for `Cc1cc(-c2ccc(OC(F)(F)F)cc2)nnc1N[C@@H]1CCCN(C)C1` [compound 81]: greater than 1000 nM and greater than 10000 nM.
Take `Cc1ccc(-c2cc(C)c(N[C@@H]3CCCN(C)C3)nn2)cc1` [compound 82]: the IC50 against NLRP3 inflammasome was greater than 1000 nM; in the test with IL-6, greater than 10000 nM.
The matching figures for `CN1CCC[C@@H](Nc2ccc(-c3ccccc3)nn2)C1` [compound 84]: greater than 1000 nM and greater than 10000 nM.
The matching figures for `Cc1ccccc1-c1ccc(N[C@@H]2CCCN(C)C2)nn1` [compound 85]: greater than 1000 nM and greater than 10000 nM.
On to `Cc1ccccc1-c1nnc(N[C@@H]2CCCN(C)C2)cc1C` [compound 87], for which the IC50 is greater than 1000 nM against NLRP3 inflammasome and greater than 10000 nM in the test with IL-6.
For the molecule `Cc1cc(-c2ccc(C(F)(F)F)cc2)nnc1N[C@H]1CN(C)CC[C@H]1F` [compound 88], the values for the IC50 against NLRP3 inflammasome and in the test on IL-6 were greater than 1000 nM and greater than 10000 nM, respectively.
Turning to `Cc1cc(N[C@@H]2CCCN(C)C2)nnc1-c1ccccc1C#N` [compound 89], the figures for the IC50 against NLRP3 inflammasome and in the test with IL-6 were greater than 1000 nM and greater than 10000 nM, respectively.
Take `Cc1cc(-c2ccccc2C#N)nnc1N[C@@H]1CCCN(C)C1` [compound 90]: the IC50 against NLRP3 inflammasome is greater than 1000 nM; in the test with IL-6, greater than 10000 nM.
The matching figures for `Cc1ccc(-c2cc(C(F)(F)F)c(N[C@@H]3CCCN(C)C3)nn2)cc1` [compound 91]: greater than 1000 nM and greater than 10000 nM.
The corresponding values for `Cc1cccc(-c2cc(C)c(N[C@@H]3CCCN(C)C3)nn2)c1` [compound 92] are greater than 1000 nM and greater than 10000 nM.
The matching figures for `Cc1cc(N[C@@H]2CCCN(C)C2)nnc1-c1ccc(C2CC2)cc1` [compound 93]: 10 to 50 nM and greater than 10000 nM.
Take `Cc1cc(-c2ccc(C3CC3)cc2)nnc1N[C@@H]1CCCN(C)C1` [compound 94]: the IC50 against NLRP3 inflammasome is greater than 1000 nM; with IL-6 it was greater than 10000 nM.
On to `Cc1cc(-c2ccc(C3CCC3)cc2)nnc1N[C@@H]1CCCN(C)C1` [compound 95], for which the IC50 against NLRP3 inflammasome is greater than 1000 nM; in the test with IL-6, 5000 to 10000 nM.
The corresponding values for `Cc1cc(N[C@@H]2CCCN(C)C2)nnc1-c1ccc(F)cc1C#N` [compound 96] are greater than 1000 nM and greater than 10000 nM.
The matching figures for `Cc1cc(-c2ccc(F)cc2C#N)nnc1N[C@@H]1CCCN(C)C1` [compound 97]: greater than 1000 nM and greater than 10000 nM.
The matching figures for `Cc1cc(-c2ccc(F)cc2F)nnc1N[C@@H]1CCCN(C)C1` [compound 98]: greater than 1000 nM and greater than 10000 nM.
Take `Cc1cc(-c2nnc(N[C@@H]3CCCN(C)C3)cc2C)ccc1C(F)(F)F` [compound 99]: the results for the IC50 against NLRP3 inflammasome and in the test with IL-6 were 500 to 1000 nM and greater than 10000 nM, respectively.
The corresponding values for `Cc1cc(-c2cc(C)c(N[C@@H]3CCCN(C)C3)nn2)ccc1C(F)(F)F` [compound 100] are greater than 1000 nM and greater than 10000 nM.
Turning to `COc1cc(N[C@@H]2CCCN(C)C2)nnc1-c1ccc(C(F)(F)F)cc1` [compound 101], the values for the IC50 against NLRP3 inflammasome and with IL-6 were greater than 1000 nM and greater than 10000 nM, respectively.
For the molecule `COc1cc(-c2ccc(C(F)(F)F)cc2)nnc1N[C@@H]1CCCN(C)C1` [compound 102], the IC50 on NLRP3 inflammasome was greater than 1000 nM; in the test with IL-6, greater than 10000 nM.
The matching figures for `CN1CCC[C@@H](Nc2nnc(-c3ccc(C(F)(F)F)cc3)cc2C#N)C1` [compound 103]: greater than 1000 nM and greater than 10000 nM.
The corresponding values for `Cc1cc(N[C@@H]2CCCN(C)C2)nnc1-c1ccc(O)cc1` [compound 104] are greater than 1000 nM and greater than 10000 nM.
The matching figures for `Cc1cc(-c2ccc(C(F)(F)F)c(Cl)c2)nnc1N[C@@H]1CCCN(C)C1` [compound 105]: greater than 1000 nM and greater than 10000 nM.
As to `Cc1cc(-c2ccc(N[C@@H]3CCCN(C)C3)nn2)cc(C)c1F` [compound 106], the IC50 against NLRP3 inflammasome was greater than 1000 nM; in the test on IL-6, greater than 10000 nM.
The matching figures for `Cc1cc(-c2cc(C)c(F)c(C)c2)nnc1N[C@@H]1CCCN(C)C1` [compound 107]: greater than 1000 nM and greater than 10000 nM.
The matching figures for `Cc1cc(N[C@@H]2CCCN(C)C2)nnc1-c1ccc(F)c(C#N)c1` [compound 108]: greater than 1000 nM and greater than 10000 nM.
The matching figures for `Cc1cc(-c2ccc(F)c(C#N)c2)nnc1N[C@@H]1CCCN(C)C1` [compound 109]: greater than 1000 nM and greater than 10000 nM.

In general, IC50 refers to the concentration that gives 50% inhibition. Lower therefore signals inhibition by little substance.
